Measured values: US4332787A, “Assay for beta-adrenergic antagonists and antibody therefor” (The Massachusetts General Hospital, priority 1980, dated 1982)
Where two headings read alike, the source gives them in different places.

What was measured:
[1] = test system: antibody (antiacebutolol amine immune serum); test: Competitive binding inhibition of 3H-(-)-propranolol to anti-acebutolol amine antibody (radioimmunoassay); parameters: species or system rabbit; conditions: for competitive inhibition of 3H-propranolol binding to the antibody: sera containing the drug
Procedure: Acebutolol amine having the formula: [drawing 3] was covalently linked to lysozyme. 150 mg of acebutolol amine was dissolved in 1.0 N HCl and was cooled to 0° C. in a salt ice bath. To this solution was added 1 cc of 0.5 M NaNO2 also at 0° C. and the resultant mixture was allowed to stand at 0° C. for 10 min. A mixture of 200 mg crystalline lysozyme in 15% aqueous sodium carbonate at 0° C. was added to 2.0 cc of the above mixture. […] The resultant product was dialyzed against phosphate buffered saline and the purified conjugate was frozen in dry ice-acetone and stored at -20° C. The product then was thawed and centrifuged for 10 min at 3000 rpm. The supernatant was recovered and mixed with Tris buffer, pH 7 at a concentration of 30 mg/ml.
Albino rabbits were immunized with this conjugate at monthly intervals for four months. Each rabbit received intracutaneous toepad injections of 0.5 mg of protein emulsified in complete Freund's adjuvant.
(§1) The assays were performed in triplicate. […] For each determination, an identical volume of preimmune serum was assayed as a control for antibody binding. […] After an incubation period of 1 hr at 25° C., 100 μl of goat-antirabbit 1 gG antiserum was added to each tube with 50 μl of normal rabbit 1 gG as a carrier for the precipitation. The tubes were again incubated at 25° C. for 30 min. The precipitates were washed twice in Tris buffer and spun in a Sorvall table-top centrifuge at 2,000 rpm×10 min. After the supernatant was decanted, the precipitates were dissolved in 1 ml of 1% sodium dodecyl sulfate. Bound radioactivity was counted in the presence of 10 ml of Aquasol-2 (New England Nuclear) in a Packard Tricarb liquid scintillation counter with a counting efficiency of 40%.
(§2) The assays to determine the competitive binding of potentially cross-reactive drugs were performed on sera obtained from patients on long-term maintenance with single drugs; digoxin, imipramine and alphamethyldopa, respectively.

beta-adrenergic receptor = conditions: metabolite of propranolol, result in words, cited from earlier work
[2] = result in words, cited from earlier work
[3] = test system: exercise heart rate (patients); test: Cardiovascular stress testing of patients on oral propranolol, serum propranolol concentration vs. heart rate and blood pressure; assay type: in vivo, human
Procedure: The assays were performed in triplicate. […] The ^3 H-(-)-propranolol was obtained from New England Nuclear Corporation. […] The standard curve for the radioimmunoassay was derived from triplicate assay of pooled human serum containing varying amounts of added (±) propranolol HCl. For each determination, an identical volume of preimmune serum was assayed as a control for antibody binding. […] After an incubation period of 1 hr at 25° C., 100 μl of goat-antirabbit 1 gG antiserum was added to each tube with 50 μl of normal rabbit 1 gG as a carrier for the precipitation. The tubes were again incubated at 25° C. for 30 min. The precipitates were washed twice in Tris buffer and spun in a Sorvall table-top centrifuge at 2,000 rpm×10 min. After the supernatant was decanted, the precipitates were dissolved in 1 ml of 1% sodium dodecyl sulfate. Bound radioactivity was counted in the presence of 10 ml of Aquasol-2 (New England Nuclear) in a Packard Tricarb liquid scintillation counter with a counting efficiency of 40%.
All subjects were submitted to standard, graded exercise according to the Bruce protocol, and 36 of 54 patients attained at least Stage II of exertion (greater than 6 min of sustained exertion).

clinical = conditions: for half-life: human, in vivo, iv
Procedure: as §1, §2
To further document the reproducibility of the assay, each serum sample from a single subject was assayed in replicate fashion at dilutions of 1:2, 1:3 and 1:4 in pooled human serum.

In the case of `NC[C@H](O)c1ccc(O)c(O)c1` [(-)-norepinephrine], the “competitive inhibition of 3H-propranolol binding to the antibody” value (“competitive inhibition” below) ([1]; result in words) is reported as “failed to produce significant competitive inhibition”.

For `CN(C)CCCN1c2ccccc2CCc2ccccc21` [imipramine], the “competitive inhibition” value ([1]; result in words) was “failed to produce significant competitive inhibition”.

With `C[C@](N)(Cc1ccc(O)c(O)c1)C(=O)O` [alpha methyldopa] the “competitive inhibition” value ([1]; result in words) was “failed to produce significant competitive inhibition”.

For `C[C@H]1O[C@@H](O[C@H]2[C@@H](O)C[C@H](O[C@H]3[C@@H](O)C[C@H](O[C@H]4CC[C@@]5(C)[C@H](CC[C@@H]6[C@@H]5C[C@@H](O)[C@]5(C)[C@@H](C7=CC(=O)OC7)CC[C@]65O)C4)O[C@@H]3C)O[C@@H]2C)C[C@H](O)[C@@H]1O` [digoxin], the “competitive inhibition” value ([1]; result in words) was “failed to produce significant competitive inhibition”.

In the case of `NCCc1ccc(O)c(O)c1` [dopamine], the “competitive inhibition” value ([1]; result in words) is reported as “failed to produce significant competitive inhibition”.

For `CC(C)NCC(O)COc1ccc(O)c2ccccc12` (stereo not drawn) [4-hydroxypropranolol], the “biological activity at the beta-adrenergic receptor” value (beta-adrenergic receptor) is listed as “equipotent beta adrenergic receptor antagonist”, the “biological activity at the beta-adrenergic receptor” value (beta-adrenergic receptor; listed as 4 OH-propranolol) is listed as “retains full biological activity” and the “detectability of metabolite in serum” value [2] is listed as “detectable in serum only after the oral route of drug administration”. For the same compound, the Kd ([1]; 3H-(-)-propranolol displacement from antibody, read-out: apparent KD (competitive binding inhibition)) was 10 nM.

In the case of `CC(=O)c1ccc(N)cc1OCC(O)CNC(C)C` (stereo not drawn) [acebutolol amine], the “competitive binding inhibition curve compared with propranolol” value ([1]; FIG. 1, result in words) is reported as “yields a curve analogous to the displacement binding observed with propranolol”.

For `CC(C)NCC(O)COc1cccc2ccccc12` (racemic) [propranolol], the “correlation between increases in blood pressure or heart rate and serum concentration” value ([3]; 54 patients, exercise, result in words) was “lack of correlation”, the “relationship of basal heart rate to plasma concentration, response to exercise, or administered dose” value ([3]; 54 patients, long-term oral propranolol, result in words) was “failed to show any significant relationship” and the “p of linear relationship between exercise response (percent of maximal predicted heart rate for age) and serum propranolol concentration” value ([3]; FIG. 3, linear regression analysis) was < 0.0005. The “average daily dose in adequately blocked patients” value ([3]; adequately blocked patients, oral) was 2.45 ± 2.89 mg/kg/day, the “p of difference in average daily dose, adequately vs. inadequately blocked patients” value ([3]; human, in vivo) was < 0.001 and the “average daily dose in inadequately blocked patients” value ([3]; inadequately blocked patients, oral) was 1.14±0.62. For the same compound, the “patients who achieved an exercise response of <67% of predicted” value ([3]; serum level <250 ng/ml) was 3/33, the “patients with exercise response consistent with adequate beta-adrenergic blockade” value ([3]; serum level >250 ng/ml) was 10/16 and the “correlation of serum propranolol and heart rate response to maximal exercise” value ([3]; study of 56 patients, result in words) was “highly significant”. The “conversion by the liver to 4 OH-propranolol” value ([2]; oral administration) was “a significant fraction of the administered dose is converted by the liver to 4 OH-propranolol”, the bio-availability [2] was “markedly variable bio-availibility” and the half-life (clinical; range of serum half-life observed in subjects) was 5 to 7.5 h. For the same compound, the half-life (clinical; serum half-life) was ~7.5 h and the “time the drug remains detectable in serum” value (clinical; single intravenous administration) was “six to twelve”.
